The subject of test [1] is MDA-MB-436 Cell line. Put plainly: MTT cell proliferation assay, MDA-MB-436 Cell line. The class given is cell-based. The following applies: Homo sapiens, 72 h, MTT; for viability at 0.01 µM: MDA-MB-436, 0.01 μM; for viability at 0.1 µM: MDA-MB-436, 0.1 μM; for viability at 2.5 µM: MDA-MB-436, 2.5 μM; for viability at 5 µM: MDA-MB-436, 5 μM; for viability at 10 µM: MDA-MB-436, 10 μM. The method, then:
(§1) 1. Protocol Followed for Anti Cancer Activity and Results, Cell Proliferation Assays: Cell lines used herein were purchased from NCCS (National Center for Cell Sciences) Pune, India. Invitro Activity was performed in NCL (National Chemical Laboratory) Pune. Each cell line was plated in 96-well microtiter plates (10,000 cells per well), and serial dilutions of indicated compounds were added. At the end of the incubation period (72 h at 37° C.), cell viability was determined by a tetrazolium dye, MTT (3-(4,5-dimethylthiazol-2-yl)-2,5-diphenyl tetrazolium bromide) (Promega, USA). The formazan crystals were dissolved in DMSO, and the absorbance at 600 nm was recorded using an ELISA plate reader. IC50 values were calculated using nonlinear regression and defined as the concentration needed for a 50% reduction in absorbance of treated versus untreated control cells.
By using the above procedure, the compounds of the invention were tested on MDA-MB-436 Cell line and the results obtained are presented below in table 7, Refer FIG. 4.
On the technique in general: Tetrazolium dyes change colour on reduction, which living cells bring about.

Test [2] has as its system HOP-62 Cell line. Put plainly: MTT cell proliferation assay, HOP-62 Cell line. The class given is cell-based. To be noted: Homo sapiens, 72 h, MTT; for viability at 0.01 µM: HOP-62, 0.01 μM; for viability at 0.1 µM: HOP-62, 0.1 μM; for viability at 2.5 µM: HOP-62, 2.5 μM; for viability at 5 µM: HOP-62, 5 μM; for viability at 10 µM: HOP-62, 10 μM. The method, then: as §1
By using the above procedure, the compounds of the invention were tested on HOP-62 Cell line and the results obtained are presented below in table 6, Refer FIG. 3.

Test [3] deals with MCF-7 Cell line. Briefly: MTT cell proliferation assay, MCF-7 Cell line. Type of test: cell-based. To be noted: Homo sapiens, MCF7, 72 h, MTT; for viability at 0.01 µM: MCF-7, 0.01 μM; for viability at 0.1 µM: MCF-7, 0.1 μM; for viability at 2.5 µM: MCF-7, 2.5 μM; for viability at 5 µM: MCF-7, 5 μM; for viability at 10 µM: MCF-7, 10 μM. The method, then: as §1
Table 4 indicates anticancer activity against A549 Cell line. The Gefitinib was used as standard and % cell Viable was measured compared to control. The procedure used was MTT assay as mentioned. […] By using the above procedure, the compounds of the invention were tested on MCF-7 Cell line and the results obtained are presented below in table 5, Refer FIG. 2.

Test [4] relates to U87MG Cell line (Glioblastoma cell line). Briefly: MTT cell proliferation assay, U87MG Cell line. Type of test: cell-based. To be noted: Homo sapiens, U-87 MG, U87MG, 72 h, MTT. The method, then:
as §1
By using the above procedure, the compounds of the invention were tested on U87MG Cell line (glioblastoma cell line) and the results obtained are presented below in table 8, Refer FIG. 5.

The subject of test [5] is A549 Cell line (Lung Cancer Cell line). Briefly: MTT cell proliferation assay, A549 Cell line. The class given is cell-based, human. To be noted: Homo sapiens, 72 h, MTT; for viability at 0.01 µM: A549, 0.01 μM; for viability at 0.1 µM: A549, 0.1 μM; for viability at 2.5 µM: A549, 2.5 μM; for viability at 5 µM: A549, 5 μM; for viability at 10 µM: A549, 10 μM. How it is done: as §1
By using the above procedure, the compounds of the invention were tested on A549 Cell line and the results obtained are presented below in table 4, Refer FIG. 1.

As a reminder, the viability is a read-out of living cells in per cent, often relative to untreated cells.

The structures appear in SMILES notation.

As to `COc1cc2ncnc(Nc3ccc(F)c(Cl)c3)c2cc1OCCCN1CCOCC1` [Gefitinib, reference compound], in test [1], the viability at 0.01 µM is 55.2%, the viability at 0.1 µM was determined as 43.7%, the viability at 2.5 µM worked out at 35.3% and the viability at 5 µM stood at 29.3%. In addition, in test [1], the viability at 10 µM worked out at 20.3%. Moreover, in test [2], the viability at 0.01 µM is 55.2%, the viability at 0.1 µM turned out to be 43.7%, the viability at 2.5 µM is 35.3% and the viability at 5 µM came out at 29.3%. Further, the viability at 10 µM in test [2] was determined as 20.3%. In addition, in test [3], the viability at 0.01 µM worked out at 55.2%, the viability at 0.1 µM was 43.7%, the viability at 2.5 µM is 35.3% and the viability at 5 µM worked out at 29.3%. Also, the viability at 10 µM in test [3] was 20.3%.

As for `Nc1nc(Nc2cccc(C(F)(F)F)c2)sc1-c1nc2ccccc2[nH]1` [Molecule S4-M8, 5-(1H-benzo[d]imidazol-2-yl)-N2-(3-(trifluoromethyl)phenyl)thiazole-2,4-diamine], in test [1], the viability at 0.01 µM came out at 101%, the viability at 0.1 µM came to 99.8%, the viability at 2.5 µM was 98.6% and the viability at 5 µM was 97.6%. Also, the viability at 10 µM in test [1] amounted to 97.6%. For the same compound, in test [2], the viability at 0.01 µM is 99.6%, the viability at 0.1 µM came to 90.8%, the viability at 2.5 µM amounted to 89.6% and the viability at 5 µM came to 81.6%. Also, the viability at 10 µM in test [2] came to 80.6%. In addition, in test [4], the viability at 0.01 µM is 86.6%, the viability at 0.1 µM came to 73.8%, the viability at 2.5 µM turned out to be 61.6% and the viability at 5 µM came to 54.6%. Further, in test [4], the viability at 10 µM amounted to 41.6%. Besides, in test [5], the viability at 0.01 µM was 98.6%, the viability at 0.1 µM came out at 88.8%, the viability at 2.5 µM turned out to be 76.6% and the viability at 5 µM was determined as 68.6%. In addition, the viability at 10 µM in test [5] stood at 59.6%. In test [3], the viability at 0.01 µM was 98.6%, the viability at 0.1 µM was 90.8%, the viability at 2.5 µM amounted to 82.6% and the viability at 5 µM is 79.6%. Moreover, the viability at 10 µM in test [3] stood at 69.6%.

On to `Cc1ccc(Nc2nc(N)c(-c3nc4ccccc4[nH]3)s2)cc1` [Molecule S4-M9, 5-(1H-benzo[d]imidazol-2-yl)-N2-p-tolylthiazole-2,4-diamine], for which the viability at 0.01 µM in test [1] stood at 91%; in test [2] it was 123%; in test [4] it was 99.4%; in test [5], 89%; in test [3], 100%. The viability at 0.1 µM turned out to be 85.8% in test [1]; 101% in test [2]; 99.9% in test [4]; 79.8% in test [5]; 98.8% in test [3]. Further, the viability at 2.5 µM in test [1] was determined as 79.3%; in test [2] it was 100%; in test [4], 99.4%; in test [5] it was 68.3%; in test [3], 96.3%. In addition, the viability at 5 µM was 69.3% in test [1]; 98.3% in test [2]; 98.6% in test [4]; 57.3% in test [5]; 96.3% in test [3]. Besides, the viability at 10 µM in test [1] stood at 54.6%; in test [2], 90.8%; in test [4], 96.9%; in test [5] it was 48.3%; in test [3] it was 96.6%.

For the compound `Cc1ccc2[nH]c(-c3sc(Nc4ccccc4)nc3N)nc2c1` [Molecule S4-M10, 5-(5-methyl-1H-benzo[d]imidazol-2-yl)-N2-phenylthiazole-2,4-diamine], in test [1], the viability at 0.01 µM is 92.9%, the viability at 0.1 µM worked out at 84%, the viability at 2.5 µM is 76.4% and the viability at 5 µM stood at 61.4%. Besides, in test [1], the viability at 10 µM is 49.4%. Also, in test [2], the viability at 0.01 µM was found to be 104%, the viability at 0.1 µM was found to be 100%, the viability at 2.5 µM was determined as 99.4% and the viability at 5 µM was found to be 95.4%. Besides, the viability at 10 µM in test [2] was 89.4%. In test [4], the viability at 0.01 µM is 88.9%, the viability at 0.1 µM worked out at 75%, the viability at 2.5 µM worked out at 68.4% and the viability at 5 µM turned out to be 55.4%. The viability at 10 µM in test [4] came out at 41.4%. Besides, in test [5], the viability at 0.01 µM stood at 90.9%, the viability at 0.1 µM worked out at 81%, the viability at 2.5 µM turned out to be 70.4% and the viability at 5 µM was found to be 61.4%. Also, the viability at 10 µM in test [5] is 49.4%. In test [3], the viability at 0.01 µM came to 141%, the viability at 0.1 µM was determined as 120%, the viability at 2.5 µM turned out to be 104% and the viability at 5 µM amounted to 100%. The viability at 10 µM in test [3] came to 100%.

For `COc1ccc(Nc2nc(N)c(-c3nc4cc(C)ccc4[nH]3)s2)cc1` [Molecule S4-M11, N^2-(4-methoxyphenyl)-5-(5-methyl-1H-benzo[d]imidazol-2-yl)thiazole-2,4-diamine], in test [1], the viability at 0.01 µM is 96.8%, the viability at 0.1 µM was determined as 92.7%, the viability at 2.5 µM amounted to 84.2% and the viability at 5 µM turned out to be 73.8%. Further, the viability at 10 µM in test [1] came to 61.8%. In addition, in test [2], the viability at 0.01 µM was found to be 157%, the viability at 0.1 µM worked out at 101%, the viability at 2.5 µM amounted to 98.2% and the viability at 5 µM is 96.8%. Besides, the viability at 10 µM in test [2] came out at 91.8%. For the same compound, in test [4], the viability at 0.01 µM turned out to be 86.8%, the viability at 0.1 µM turned out to be 71.7%, the viability at 2.5 µM came to 60.2% and the viability at 5 µM came to 49.8%. Moreover, the viability at 10 µM in test [4] was 38.8%. In test [5], the viability at 0.01 µM is 94.8%, the viability at 0.1 µM turned out to be 80.7%, the viability at 2.5 µM turned out to be 72.8% and the viability at 5 µM came to 63.8%. The viability at 10 µM in test [5] turned out to be 51.8%. Further, in test [3], the viability at 0.01 µM came to 157%, the viability at 0.1 µM stood at 133%, the viability at 2.5 µM was 110% and the viability at 5 µM was 101%. For the same compound, the viability at 10 µM in test [3] is 101%.

Take `Cc1ccc2[nH]c(-c3sc(Nc4ccc(Cl)cc4)nc3N)nc2c1` [Molecule S4-M12, N^2-(4-chlorophenyl)-5-(5-methyl-1H-benzo[d]imidazol-2-yl)thiazole-2,4-diamine]: in test [1], the viability at 0.01 µM turned out to be 94.1%, the viability at 0.1 µM came out at 89.4%, the viability at 2.5 µM was determined as 79.9% and the viability at 5 µM is 65.9%. Moreover, in test [1], the viability at 10 µM worked out at 51.8%. Moreover, in test [2], the viability at 0.01 µM came to 102%, the viability at 0.1 µM was 95.4%, the viability at 2.5 µM is 92.9% and the viability at 5 µM stood at 85.9%. Also, the viability at 10 µM in test [2] is 79.9%. Moreover, in test [4], the viability at 0.01 µM was determined as 92.1%, the viability at 0.1 µM is 81.4%, the viability at 2.5 µM was determined as 73.9% and the viability at 5 µM worked out at 61.9%. In addition, the viability at 10 µM in test [4] stood at 49.8%. In addition, in test [5], the viability at 0.01 µM stood at 93.1%, the viability at 0.1 µM was 81.4%, the viability at 2.5 µM came out at 69.9% and the viability at 5 µM came out at 58.9%. Besides, in test [5], the viability at 10 µM is 49.9%. For the same compound, in test [3], the viability at 0.01 µM stood at 99.1%, the viability at 0.1 µM stood at 91.4%, the viability at 2.5 µM is 85.9% and the viability at 5 µM is 74.9%. Moreover, the viability at 10 µM in test [3] was determined as 70.8%.

The values above are taken from patent US9862712B2, “Benzimidazole based EGFR inhibitors” (COUNCIL OF SCIENTIFIC & INDUSTRIAL RESEARCH, priority 2014, dated 2018).
